Measurements: patent publication US12049439B2 (OrsoBio, Inc., priority 2018, dated 2024)
Read-outs that look alike come from different tables or passages of the source.

Test system: PC-3 cells
Experiment: PC-3 Oxygen Rate Consumption (OCR) Assay
Type: cell-based
Settings: medium with 2% FBS, OCR at 3-min post-injection normalized to % increase over DMSO-treated cells, concentration for half-maximal OCR increase, read-out: EC50-PC3-OCR-FBS-3min
How it was run: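 Oxygen consumption read on Seahorse XFe96: three basal measurements, then compound injection and 10 cycles over 30 min. EC50 defined as concentration giving half-maximal OCR rise, using 3-min post-injection values as % above DMSO controls, six replicates per treatment, in PC-3 cells in glucose/pyruvate medium.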

Row | Structure (SMILES) | EC50 (Homo sapiens, 0.05 h) [µM] | EC50 [µM]
1 | CC(C)(C)S(=O)(=O)Nc1ccc(Cl)cc1C(=O)NC12CC(C#N)(C1)C2 [Example 85, 5-chloro-N-(3-cyanobicyclo[1.1.1]pentan-1-yl)-2-((1,1-dimethylethyl)sulfonamido)benzamide] | 12.5 | –
2 | CS(=O)(=O)c1ccc(S(=O)(=O)Nc2ccc(C(F)(F)F)cc2C(=O)NC23CC(C(F)(F)F)(C2)C3)cc1 [Example 86, 2-((4-(methylsulfonyl)phenyl)sulfonamido)-5-(trifluoromethyl)-N-(3-(trifluoromethyl)bicyclo[1.1.1]pentan-1-yl)benzamide] | 8.27 | –
3 | CS(=O)(=O)c1ccc(S(=O)(=O)Nc2ccc(C(F)(F)F)cc2C(=O)NC23CC(c4ccccc4)(C2)C3)cc1 [Example 87, 2-((4-(methylsulfonyl)phenyl)sulfonamido)-N-(3-phenylbicyclo[1.1.1]pentan-1-yl)-5-(trifluoromethyl)benzamide] | 3.28 | –
4 | COc1ccc(C(=O)NC23CC(C(F)(F)F)(C2)C3)c(NS(=O)(=O)c2ccc(S(C)(=O)=O)cc2)c1 [Example 88, 4-methoxy-2-((4-(methylsulfonyl)phenyl)sulfonamido)-N-(3-(trifluoromethyl)bicyclo[1.1.1]pentan-1-yl)benzamide] | 26.3 | –
5 | COc1ccc(C(=O)NC23CC(c4ccccc4)(C2)C3)c(NS(=O)(=O)c2ccc(S(C)(=O)=O)cc2)c1 [Example 89, 4-methoxy-2-((4-(methylsulfonyl)phenyl)sulfonamido)-N-(3-phenylbicyclo[1.1.1]pentan-1-yl)benzamide] | 26.7 | –
6 | CS(=O)(=O)c1ccc(S(=O)(=O)Nc2ccc(Cl)cc2C(=O)NC23CC(C(F)(F)F)(C2)C3)cc1 [Example 90, 5-chloro-2-((4-(methylsulfonyl)phenyl)sulfonamido)-N-(3-(trifluoromethyl)bicyclo[1.1.1]pentan-1-yl)benzamide] | 2.67 | –
7 | CS(=O)(=O)c1ccc(S(=O)(=O)Nc2ccc(Cl)cc2C(=O)NC23CC(c4ccccc4)(C2)C3)cc1 [Example 91, 5-chloro-2-((4-(methylsulfonyl)phenyl)sulfonamido)-N-(3-phenylbicyclo[1.1.1]pentan-1-yl)benzamide] | 2.97 | –
8 | CS(=O)(=O)c1ccc(S(=O)(=O)Nc2cc(Cl)c(Cl)cc2C(=O)NC23CC(C(F)(F)F)(C2)C3)cc1 [Example 92, 4,5-dichloro-2-((4-(methylsulfonyl)phenyl)sulfonamido)-N-(3-(trifluoromethyl)bicyclo[1.1.1]pentan-1-yl)benzamide] | 8.09 | –
9 | CS(=O)(=O)c1ccc(S(=O)(=O)Nc2cc(Cl)c(Cl)cc2C(=O)NC23CC(c4ccccc4)(C2)C3)cc1 [Example 93, 4,5-dichloro-2-((4-(methylsulfonyl)phenyl)sulfonamido)-N-(3-phenylbicyclo[1.1.1]pentan-1-yl)benzamide] | 2.64 | –
10 | CC(C)(C)S(=O)(=O)Nc1ccc(Br)cc1C(=O)NC12CC(c3ccccc3)(C1)C2 [Example 94, 5-bromo-2-((1,1-dimethylethyl)sulfonamido)-N-(3-phenylbicyclo[1.1.1]pentan-1-yl)benzamide] | 6.16 | –
11 | CC(C)(C)S(=O)(=O)Nc1ccc(Br)cc1C(=O)NC12CC(C(F)(F)F)(C1)C2 [Example 95, 5-bromo-2-((1,1-dimethylethyl)sulfonamido)-N-(3-(trifluoromethyl)bicyclo[1.1.1]pentan-1-yl)benzamide] | 1.12 | –
12 | CC(C)(C)S(=O)(=O)Nc1ccc(C#N)cc1C(=O)NC12CC(c3ccccc3)(C1)C2 [Example 96, 5-cyano-2-((1,1-dimethylethyl)sulfonamido)-N-(3-phenylbicyclo[1.1.1]pentan-1-yl)benzamide] | 1.28 | –
13 | CC(C)(C)S(=O)(=O)Nc1ccc(C#N)cc1C(=O)NC12CC(C(F)(F)F)(C1)C2 [Example 97, 5-cyano-2-((1,1-dimethylethyl)sulfonamido)-N-(3-(trifluoromethyl)bicyclo[1.1.1]pentan-1-yl)benzamide] | 1.43 | –
14 | CC(C)(C)S(=O)(=O)Nc1cc(C#N)ccc1C(=O)NC12CC(c3ccccc3)(C1)C2 [Example 98, 4-cyano-2-((1,1-dimethylethyl)sulfonamido)-N-(3-phenylbicyclo[1.1.1]pentan-1-yl)benzamide] | 1.98 | –
15 | CC(C)(C)S(=O)(=O)Nc1cc(C#N)ccc1C(=O)NC12CC(C(F)(F)F)(C1)C2 [Example 99, 4-cyano-2-((1,1-dimethylethyl)sulfonamido)-N-(3-(trifluoromethyl)bicyclo[1.1.1]pentan-1-yl)benzamide] | 1.18 | –
16 | CC(C)(C)S(=O)(=O)Nc1ccc(-c2ncccn2)cc1C(=O)NC12CC(C(F)(F)F)(C1)C2 [Example 100, 2-((1,1-dimethylethyl)sulfonamido)-5-(pyrimidin-2-yl)-N-(3-(trifluoromethyl)bicyclo[1.1.1]pentan-1-yl)benzamide] | 14.2 | –

Row | Structure (SMILES) | EC50 (Homo sapiens, 0.05 h) [µM] | EC50 [µM]
17 | O=C(NC12CC(C(F)(F)F)(C1)C2)c1ccc(C(F)(F)F)cc1NS(=O)(=O)c1ccc(-c2ncccn2)cc1 [Example 101, 2-((4-(pyrimidin-2-yl)phenyl)sulfonamido)-4-(trifluoromethyl)-N-(3-(trifluoromethyl)bicyclo[1.1.1]pentan-1-yl)benzamide] | 1.18 | –
18 | CN(C)c1ccc(S(=O)(=O)Nc2cc(C(F)(F)F)ccc2C(=O)NC23CC(C(F)(F)F)(C2)C3)cc1 [Example 102, 2-((4-(dimethylamino)phenyl)sulfonamido)-4-(trifluoromethyl)-N-(3-(trifluoromethyl)bicyclo[1.1.1]pentan-1-yl)benzamide] | 2.42 | –
19 | CS(=O)(=O)Oc1ccc(S(=O)(=O)Nc2cc(C(F)(F)F)ccc2C(=O)NC23CC(C(F)(F)F)(C2)C3)cc1 [Example 103, 4-(N-(5-(trifluoromethyl)-2-((3-(trifluoromethyl)bicyclo[1.1.1]pentan-1-yl)carbamoyl)phenyl)sulfamoyl)phenyl methanesulfonate] | 1.88 | –
20 | CCCS(=O)(=O)Nc1ccc(C#N)cc1C(=O)NC12CCC(C#N)(CC1)CC2 [Example 104, 5-cyano-N-(4-cyanobicyclo[2.2.2]octan-1-yl)-2-(propylsulfonamido)benzamide] | 37.5 | –
21 | CS(=O)(=O)Nc1ccc(C(F)(F)F)cc1C(=O)NC12CCC(C#N)(CC1)CC2 [Example 105, N-(4-cyanobicyclo[2.2.2]octan-1-yl)-2-(methylsulfonamido)-5-(trifluoromethyl)benzamide] | 22.9 | –
22 | O=C(NC12CC(C(F)(F)F)(C1)C2)c1ccc(C(F)(F)F)cc1NS(=O)(=O)c1ccc(N2CCS(=O)(=O)CC2)cc1 [Example 106, 2-((4-(1,1-dioxidothiomorpholino)phenyl)sulfonamido)-4-(trifluoromethyl)-N-(3-(trifluoromethyl)bicyclo[1.1.1]pentan-1-yl)benzamide] | 18.8 | –
23 | CS(=O)(=O)Nc1ccc(S(=O)(=O)Nc2cc(C(F)(F)F)ccc2C(=O)NC23CC(C(F)(F)F)(C2)C3)cc1 [Example 107, 2-((4-(methylsulfonamido)phenyl)sulfonamido)-4-(trifluoromethyl)-N-(3-(trifluoromethyl)bicyclo[1.1.1]pentan-1-yl)benzamide] | 30.6 | –
24 | N#CC1(S(=O)(=O)Nc2ccc(C(F)(F)F)cc2C(=O)NC23CC(C(F)(F)F)(C2)C3)CC1 [Example 108, 2-((1-cyanocyclopropane)-1-sulfonamido)-5-(trifluoromethyl)-N-(3-(trifluoromethyl)bicyclo[1.1.1]pentan-1-yl)benzamide] | – | 8.44
25 | O=C(NC12CC(C(F)(F)F)(C1)C2)c1ccc(C(F)(F)F)cc1NS(=O)(=O)c1ccc(F)cc1 [Example 109] | 0.38 | –
26 | CC(C)(C)S(=O)(=O)Nc1cc(C(F)(F)F)ccc1C(=O)NC12CC(C(F)(F)F)(C1)C2 [Example 110, 2-((1,1-dimethylethyl)sulfonamido)-4-(trifluoromethyl)-N-(3-(trifluoromethyl)bicyclo[1.1.1]pentan-1-yl)benzamide] | 0.445 | –
27 | COc1ccc(S(=O)(=O)Nc2cc(C(F)(F)F)ccc2C(=O)NC23CC(C(F)(F)F)(C2)C3)cc1 [Example 111, 2-((4-methoxyphenyl)sulfonamido)-4-(trifluoromethyl)-N-(3-(trifluoromethyl)bicyclo[1.1.1]pentan-1-yl)benzamide] | 0.811 | –
28 | COCCOc1ccc(S(=O)(=O)Nc2cc(C(F)(F)F)ccc2C(=O)NC23CC(C(F)(F)F)(C2)C3)cc1 [Example 112, 2-((4-(2-methoxyethoxy)phenyl)sulfonamido)-4-(trifluoromethyl)-N-(3-(trifluoromethyl)bicyclo[1.1.1]pentan-1-yl)benzamide] | 1.29 | –
29 | CSCCOc1ccc(S(=O)(=O)Nc2cc(C(F)(F)F)ccc2C(=O)NC23CC(C(F)(F)F)(C2)C3)cc1 [Example 113, 2-((4-(2-(methylthio)ethoxy)phenyl)sulfonamido)-4-(trifluoromethyl)-N-(3-(trifluoromethyl)bicyclo[1.1.1]pentan-1-yl)benzamide] | 0.697 | –
30 | CC(C)(C)S(=O)(=O)Nc1cc(C(F)(F)F)ccc1C(=O)NC12CCC(C#N)(CC1)CC2 [Example 114, N-(4-cyanobicyclo[2.2.2]octan-1-yl)-2-((1,1-dimethylethyl)sulfonamido)-4-(trifluoromethyl)benzamide] | 3.48 | –
31 | CS(=O)(=O)CCOc1ccc(S(=O)(=O)Nc2cc(C(F)(F)F)ccc2C(=O)NC23CC(C(F)(F)F)(C2)C3)cc1 [Example 115, 2-((4-(2-(methylsulfonyl)ethoxy)phenyl)sulfonamido)-4-(trifluoromethyl)-N-(3-(trifluoromethyl)bicyclo[1.1.1]pentan-1-yl)benzamide] | 12.6 | –
32 | CCS(=O)(=O)Nc1cc(C(F)(F)F)ccc1C(=O)NC12CC(C(F)(F)F)(C1)C2 [Example 116, 2-(ethylsulfonamido)-4-(trifluoromethyl)-N-(3-(trifluoromethyl)bicyclo[1.1.1]pentan-1-yl)benzamide] | 1.58 | –
